For series [1], the system named is rats. Description: Oral subacute toxicity in rats. Type of series: in vivo. The conditions noted are these: 1 month old rats, up to a daily dosage of 100 mg/kg. The source says:
Oral subacute toxicity in rats was investigated by determination of the death rate (if any), of the change in the weight of some organs, and by hematologic examinations, and the like.
Subacute toxicity in 1 month old rats, with compounds Nos. 11 and 18

In another series the test system is learning in rats. Description: Effect on learning: Shuttle-box test. The format is in vivo. The conditions noted are these: compared with chlordiazepoxide. An excerpt: f. Effect on learning in rats: Shuttle-box test.
In series [2] the test system is rats. Description: Acute toxicity in rats. The conditions noted are these: single administration. The format is in vivo. An excerpt: (§1) Acute toxicity in mice by the sub-cutaneous and oral routes and in rats by the oral route was investigated by determination of the death rate following a single administration of increasing dosages.
(§2) Symbol > means that the LD50 is not attained at the dosage indicated.

Series [3] has as its system reserpine effect on temperature and ptosis. The series is described as follows: Anti-reserpine effect on temperature and ptosis. Type of series: in vivo. The conditions noted are these: compared with Imipramine. An excerpt:
b. Anti-reserpine effect on temperature and ptosis.

Series [4] deals with narcosis induced by pentobarbital in mice. Description: Effect on narcosis induced by pentobarbital. The format is in vivo. The conditions noted are these: compared with chlordiazepoxide. An excerpt: (§3) d. Effect on narcosis induced by pentobarbital and ethanol in mice.
Series [5] deals with narcosis induced by ethanol in mice. Description: Effect on narcosis induced by ethanol. The format is in vivo.
Excerpt: as §3

Series [6] relates to aggressiveness in mice-killing rats. Description: Anti-aggressive: aggressiveness in mice-killing rats. Type of series: in vivo. The conditions noted are these: for ED50: Rattus norvegicus, oral, read-out: Oral AD50, mice-killing rats. How it is done: (§4) d. aggressiveness in mice-killing rats.
(§5) In all cases, the AD50 values were determined by the oral route.

For series [7], the system named is aggressiveness subsequent to apomorphine injection in rats. Description: Anti-aggressive: aggressiveness subsequent to apomorphine injection, rats. Type of series: in vivo. The following applies: Rattus norvegicus, oral, apomorphine injection 1 mg/kg, read-out: Oral AD50, apomorphine, in rats. Here is the method: (§6) b. aggressiveness subsequent to apomorphine injection (1 mg/kg, in vivo) in rats,
as §5

Series [8] has as its system aggressiveness subsequent to extended isolation in mice. Description: Anti-aggressive: aggressiveness subsequent to extended isolation, mice. Type of series: in vivo. The following applies: Mus musculus, oral, read-out: Oral AD50, isolated mice. How it is done:
(§7) c. aggressiveness subsequent to extended isolation, in mice,
as §5

In series [9] the test system is aggressiveness subsequent to electric shocks in rats. Description: Anti-aggressive: aggressiveness subsequent to electric shocks, rats. The format is in vivo. The following applies: Rattus norvegicus, oral, read-out: Oral AD50, electric shock in rats. Here is the method:
(§8) a. aggressiveness subsequent to electric shocks in mice and rats,
as §5

Series [10] deals with cardiazol convulsions in mice. The series is described as follows: Anti-convulsant effect with respect to cardiazol. The following applies: compared with chlordiazepoxide. The format is in vivo. The source says: c. Anti-convulsant effect with respect to cardiazol in mice.
Series [11] concerns aggressiveness in mice and rats. The series is described as follows: Anti-aggressive tests overall. The format is in vivo. The conditions noted are these: oral. Here is the method: as §8, §6, §7, §4, §5
In series [12] the test system is stereotypy induced by apomorphine injection in rats. The series is described as follows: Effect on stereotypy induced by apomorphine injection. Type of series: in vivo. An excerpt: e. Effect on stereotypy induced by apomorphine injection in rats.
In the next series the test system is rotarod test in mice. The series is described as follows: Incapacitating effect: rotarod test. The format is in vivo. The conditions noted are these: compared with chlordiazepoxide. The source says:
a. Incapacitating effect: rotarod test in mice.

A further series deals with catalepsy and ptosis. The series is described as follows: Neuroleptic effects: catalepsy and ptosis. The following applies: in vivo.
In series [13] the test system is aggressiveness subsequent to electric shocks in mice. Description: Anti-aggressive: aggressiveness subsequent to electric shocks, mice. The format is in vivo. The conditions noted are these: Mus musculus, oral, read-out: Oral AD50, electric shock in mice. Here is the method:
as §8, §5

Another series in a line: Acute toxicity in mice. Type of series: in vivo. The following applies: mouse, in vivo, single administration.
Excerpt: as §1, §2

The next series relates to mice. The series is described as follows: Acute toxicity in mice. Type of series: in vivo. The conditions noted are these: oral route, single administration.
Excerpt: as §1, §2

Another series can be described thus: Acute toxicity in rats. Type of series: in vivo. The conditions noted are these: rat, in vivo, po, single administration.
Excerpt: as §1, §2

The subject of series [14] is group toxicity of amphetamine in mice. The series is described as follows: Antagonistic activity on the group toxicity of amphetamine in mice. Type of series: in vivo. The following applies: Mus musculus, read-out: AD50, antagonistic activity on the group toxicity of amphetamine.
A further series deals with motor activity in mice. The series is described as follows: Motor-stimulant or -depressant activity, light-beam activometer. The conditions noted are these: sub-cutaneous or oral routes. The format is in vivo. Here is the method:
The motor-stimulant or -depressant activities were investigated in mice by the sub-cutaneous or oral routes by means of an activometric technique (light-beam activometer).
The dosages which increase or decrease the number of cases over the 50% limit were determined with respect to concomitantly effected reference tests.

The next series relates to writhing in mice. Description: Antalgic: writhing test in mice (intraperitoneal acetic acid). Type of series: in vivo. The following applies: Mus musculus, oral route, read-out: AD50 on administration of acetic acid. Here is the method: (§9) The following tests were carried out:
(§10) a. writhing test in mice, by the oral route (on intraperitoneal administration of acetic acid),

Series [15] deals with antalgic activity in mice. The series is described as follows: Antalgic activity overall (writhing and hot-plate). Type of series: in vivo. How it is done:
as §9, §10
(§11) b. hot-plate test: licking reflex in mice on a plate heated at 65° C.

The test system of another series is licking reflex in mice. The series is described as follows: Antalgic: hot-plate test, licking reflex. The format is in vivo. The following applies: Mus musculus, plate heated at 65° C., read-out: AD50 in the hot-plate test (licking reflex). Here is the method: as §9, §11
A further series deals with psychotropic activity. Description: Psychotropic activity, overall profile. The conditions noted are these: in vivo. The source says:
The psychotropic and anti-inflammatory effects of the derivatives of this invention were investigated according to several methods described hereinafter.

The mark [16] stands for this setting: sc, read-out: LD50, s.c. route, mice.

The text below walks through data of US4073908A, “8-Amino-theophylline derivatives and therapeutic applications thereof” (Laboratoire le Brun S.A., priority 1975, dated 1978).

`Cn1c(=O)c2c(nc3n2CCN3CCN2CCN(c3cccc(Cl)c3)CC2)n(C)c1=O` [Compound 11]: the “death rate (fatal issue)” value in the series with rats [1] is given as “No fatal issue was noted”. In addition, the learning-delaying effect result in the series with learning in rats was “does not, as the latter compound, exhibit incapacitating, anti-convulsant, pentobarbitalor ethanol-induced narcosis-potentiating, or learning-delaying effects”. Further, in the series on rats [2], the “LD50, oral route, rats” value stood at 1000 mg/kg. In series [3], the anti-reserpinic effect entry was “absence of anti-reserpinic effect”. In addition, the pentobarbital-induced narcosis-potentiating effect result in series [4] is given as “does not, as the latter compound, exhibit incapacitating, anti-convulsant, pentobarbitalor ethanol-induced narcosis-potentiating”. Moreover, the ethanol-induced narcosis-potentiating effect result in series [5] is recorded as “does not, as the latter compound, exhibit incapacitating, anti-convulsant, pentobarbitalor ethanol-induced narcosis-potentiating”. Moreover, the ED50 in [6] amounted to 50 mg/kg; in series [7], 140 mg/kg; in series [8], 10 mg/kg; in series [9], 45 mg/kg; in [13], 30 mg/kg. For the same compound, in [6] (compared with Imipramine), the “activity in the mice-killing test in rats relative to Imipramine” value is “Superior to Imipramine in the mice-killing test in rats”. For the same compound, the anti-convulsant effect result in [10] is “does not, as the latter compound, exhibit incapacitating, anti-convulsant”. In addition, in series [11], the “anti-aggressive activity (in words)” value is reported as “in most cases, are superior to those of chlordiazepoxide in the anti-aggressive tests”. Moreover, the apomorphinic anti-stereotypy entry in [12] was “absence of apomorphinic anti-stereotypy”. The incapacitating effect result in the series on rotarod test in mice is “does not, as the latter compound, exhibit incapacitating”. In addition, the catalepsy result in the series on catalepsy and ptosis was “absence of apomorphinic anti-stereotypy, of catalepsy”. In the series on catalepsy and ptosis, the ptosis entry is “absence of apomorphinic anti-stereotypy, of catalepsy and of ptosis”. Moreover, in “Acute toxicity in mice” (setting [16]), the LD50 is more than 300 mg/kg. For the same compound, the “LD50, oral route, mice” value in the series with mice was determined as 450 mg/kg.
As to `Cn1c(=O)c2c(nc3n2CCCN3CCN2CCN(c3cccc(Cl)c3)CC2)n(C)c1=O` [Compound 18, 9-(2-4-(m-chlorophenyl)piperazin-1-yl!-ethyl)1,3-dimethyl-6,7,8,9-tetrahydropyrimidino(2,1-f)-purine-2,4-dione], in the series with rats [1], the “death rate (fatal issue)” value is “No fatal issue was noted”. Further, the LD50 in “Acute toxicity in rats” was more than 100 mg/kg; in the series “Acute toxicity in mice” (po, read-out: LD50, oral route, mice), more than 300 mg/kg; in the series “Acute toxicity in mice” (setting [16]) it was more than 300 mg/kg. The ED50 was found to be 20 mg/kg in [14]; 22 mg/kg in [6]; 85 mg/kg in series [7]; 9 mg/kg in series [8]; 45 mg/kg in series [9]; 7.5 mg/kg in the series on motor activity in mice (Mus musculus, read-out: AD50, sedative action). Besides, the ED50 in the series with writhing in mice was 13 mg/kg; with licking reflex in mice it was 8.5 mg/kg; in series [13], 15 mg/kg. Also, in series [5], the ethanol-induced narcosis-potentiating effect result was “potentiates ethanol-induced narcosis”. Further, the “sedative action (in words)” value in the series on motor activity in mice was “more sedative”. The “antalgic activity (in words)” value in series [15] is listed as “more antalgic”. For the same compound, the “psychotropic activity (in words)” value in the series with psychotropic activity is given as “has the same characteristics”.
